The results in this text go back to patent US20230013823A1, “INHIBITORS OF HUMAN IMMUNODEFICIENCY VIRUS REPLICATION” (VIV HEALTHCARE UK (No. 5) LIMITED, priority 2019, published 2023).

In data set [1] the test system is recombinant NL4-3 virus (Renilla luciferase in nef). Kind of data set: HIV cell culture assay (antiviral activity, luciferase readout in MT-2 cells). Format: cell-based. The following applies: Renilla, NL43. The method in brief: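 MT-2 cells were infected for 4-5 days with 293T-derived recombinant NL4-3 reporter virus in the presence of serially diluted compound. Antiviral activity was quantified as luciferase activity using a live-cell substrate. EC50 was derived from the median effect equation.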

Data set [2] in a line: Compound cytotoxicity, XTT-based colorimetric assay. Format: cell-based. The following applies: human; uninfected MT2 cells, day 4, XTT. How it is done: Compound cytotoxicity and the corresponding CC50 values were determined using the same protocol as described in the antiviral assay except that uninfected cells were used. Cytotoxicity was assessed on day 4 in uninfected MT2 cells by using an XTT (2,3-bis[2-Methoxy-4-nitro-5-sulfophenyl]-2H-tetrazolium-5-carboxyanilide inner salt)-based colorimetric assay (Sigma-Aldrich, St Louis, Mo.).
In general terms: Tetrazolium dyes change colour on reduction, which living cells bring about.

Take `CS(=O)(=O)Nc1nn(CCCF)c2c(-n3c([C@H](Cc4cc(F)cc(F)c4)NC(=O)Cn4nc(C(F)F)c5c4C(F)(F)[C@@H]4C[C@H]54)nc4cc(-c5ccn(CC(F)(F)C(F)F)n5)ccc4c3=O)ccc(Cl)c12` [Example 67, N—((S)-1-((3P)-3-(4-chloro-1-(3-fluoropropyl)-3-(methylsulfonamido)-1H-indazol-7-yl)-4-oxo-7-(1-(2,2,3,3-tetrafluoropropyl)-1H-pyrazol-3-yl)-3,4-dihydroquinazolin-2-yl)-2-(3,5-difluorophenyl)ethyl)-2-((3bS,4aR)-3-(difluoromethyl)-5,5-difluoro-3b,4,4a,5-tetrahydro-1H-cyclopropa[3,4]cyclopenta[1,2-c]pyrazol-1-yl)acetamide]: in data set [1], the concentration giving a half-maximal response (EC50) turned out to be 0.049 nM. Moreover, in data set [2], the CC50 at 4 days is > 100 nM.
The matching figures for `Cn1nc(NS(C)(=O)=O)c2c(Cl)ccc(-n3c([C@H](Cc4cc(F)cc(F)c4)NC(=O)Cn4nc(C(F)F)c5c4C(F)(F)[C@@H]4C[C@H]54)nc4cc(-c5ccn(CCCC(F)(F)F)n5)ccc4c3=O)c21` (atropisomer, axis not shown; (P)) [Example 53, N—((S)-1-((3P)-3-(4-chloro-1-methyl-3-(methylsulfonamido)-1H-indazol-7-yl)-4-oxo-7-(1-(4,4,4-trifluorobutyl)-1H-pyrazol-3-yl)-3,4-dihydroquinazolin-2-yl)-2-(3,5-difluorophenyl)ethyl)-2-((3bS,4aR)-3-(difluoromethyl)-5,5-difluoro-3b,4,4a,5-tetrahydro-1H-cyclopropa[3,4]cyclopenta[1,2-c]pyrazol-1-yl)acetamide]: 0.1 nM and > 100 nM.
`Cn1nc(NS(C)(=O)=O)c2c(Cl)ccc(-n3c([C@H](Cc4cc(F)cc(F)c4)NC(=O)Cn4nc(C(F)F)c5c4C(F)(F)[C@H]4C[C@H]54)nc4cc(-c5cnn(C(F)F)c5)ccc4c3=O)c21` (atropisomer, axis not shown; (P)) [Example 35, N—((S)-1-((3P)-3-(4-chloro-1-methyl-3-(methylsulfonamido)-1H-indazol-7-yl)-7-(1-(difluoromethyl)-1H-pyrazol-4-yl)-4-oxo-3,4-dihydroquinazolin-2-yl)-2-(3,5-difluorophenyl)ethyl)-2-((3bS,4aR)-3-(difluoromethyl)-5,5-difluoro-3b,4,4a,5-tetrahydro-1H-cyclopropa[3,4]cyclopenta[1,2-c]pyrazol-1-yl)acetamide]: in data set [1], the half-maximal effective concentration (EC50) is 0.092 nM. Further, in data set [2], the CC50 at 4 days was > 100 nM.
The matching figures for `Cn1nc(NS(C)(=O)=O)c2c(Cl)ccc(-n3c([C@H](Cc4cc(F)cc(F)c4)NC(=O)Cn4nc(C(F)(F)F)c5c4C(F)(F)[C@@H]4C[C@H]54)nc4cc(-c5ccn(CC(C)(F)F)n5)ccc4c3=O)c21` (atropisomer, axis not shown; (P)) [Example 66, N—((S)-1-((3P)-3-(4-chloro-1-methyl-3-(methylsulfonamido)-1H-indazol-7-yl)-7-(1-(2,2-difluoropropyl)-1H-pyrazol-3-yl)-4-oxo-3,4-dihydroquinazolin-2-yl)-2-(3,5-difluorophenyl)ethyl)-2-((3bS,4aR)-5,5-difluoro-3-(trifluoromethyl)-3b,4,4a,5-tetrahydro-1H-cyclopropa[3,4]cyclopenta[1,2-c]pyrazol-1-yl)acetamide]: 0.069 nM and > 100 nM.
Take `COc1nccc(-c2ccc3c(=O)n(-c4ccc(Cl)c5c(NS(C)(=O)=O)nn(C)c45)c([C@H](Cc4cc(F)cc(F)c4)NC(=O)Cn4nc(C(F)F)c5c4C(F)(F)[C@@H]4C[C@H]54)nc3c2)n1` (atropisomer, axis not shown; (P)) [Example 5, N—((S)-1-((3P)-3-(4-chloro-1-methyl-3-(methylsulfonamido)-1H-indazol-7-yl)-7-(2-methoxypyrimidin-4-yl)-4-oxo-3,4-dihydroquinazolin-2-yl)-2-(3,5-difluorophenyl)ethyl)-2-((3bS,4aR)-3-(difluoromethyl)-5,5-difluoro-3b,4,4a,5-tetrahydro-1H-cyclopropa[3,4]cyclopenta[1,2-c]pyrazol-1-yl)acetamide]: the EC50 in data set [1] was determined as 0.083 nM. In data set [2], the CC50 at 4 days is > 500 nM.
Consider `Cc1cc(-c2ccc3c(=O)n(-c4ccc(Cl)c5c(NS(C)(=O)=O)nn(C)c45)c([C@H](Cc4cc(F)cc(F)c4)NC(=O)Cn4nc(C(F)F)c5c4C(F)(F)[C@@H]4C[C@H]54)nc3c2)nn1CC(F)(F)C(F)F` (atropisomer, axis not shown; (P)) [Example 57, N—((S)-1-((3P)-3-(4-chloro-1-methyl-3-(methylsulfonamido)-1H-indazol-7-yl)-7-(5-methyl-1-(2,2,3,3-tetrafluoropropyl)-1H-pyrazol-3-yl)-4-oxo-3,4-dihydroquinazolin-2-yl)-2-(3,5-difluorophenyl)ethyl)-2-((3bS,4aR)-3-(difluoromethyl)-5,5-difluoro-3b,4,4a,5-tetrahydro-1H-cyclopropa[3,4]cyclopenta[1,2-c]pyrazol-1-yl)acetamide], for which the EC50 in data set [1] came out at 0.13 nM. In addition, in data set [2], the CC50 at 4 days was > 100 nM.
Take `Cn1nc(NS(C)(=O)=O)c2c(Cl)ccc(-n3c([C@H](Cc4cc(F)cc(F)c4)NC(=O)Cn4nc(C(F)F)c5c4C(F)(F)[C@@H]4C[C@H]54)nc4cc(-c5ccnc(C#N)n5)ccc4c3=O)c21` (atropisomer, axis not shown; (P)) [Example 11, N—((S)-1-((3P)-3-(4-chloro-1-methyl-3-(methylsulfonamido)-1H-indazol-7-yl)-7-(2-cyanopyrimidin-4-yl)-4-oxo-3,4-dihydroquinazolin-2-yl)-2-(3,5-difluorophenyl)ethyl)-2-((3bS,4aR)-3-(difluoromethyl)-5,5-difluoro-3b,4,4a,5-tetrahydro-1H-cyclopropa[3,4]cyclopenta[1,2-c]pyrazol-1-yl)acetamide]: the EC50 in data set [1] worked out at 0.089 nM. Further, the half-maximal cytotoxic concentration (CC50) at 4 days in data set [2] is > 500 nM.
Regarding `Cn1nc(NS(C)(=O)=O)c2c(Cl)ccc(-n3c([C@H](Cc4cc(F)cc(F)c4)NC(=O)Cn4nc(C(F)F)c5c4C(F)(F)[C@@H]4C[C@H]54)nc4cc(-c5ncc(F)cn5)ccc4c3=O)c21` (atropisomer, axis not shown; (P)) [Example 24, N—((S)-1-((3P)-3-(4-chloro-1-methyl-3-(methylsulfonamido)-1H-indazol-7-yl)-7-(5-fluoropyrimidin-2-yl)-4-oxo-3,4-dihydroquinazolin-2-yl)-2-(3,5-difluorophenyl)ethyl)-2-((3bS,4aR)-3-(difluoromethyl)-5,5-difluoro-3b,4,4a,5-tetrahydro-1H-cyclopropa[3,4]cyclopenta[1,2-c]pyrazol-1-yl)acetamide], in data set [1], the EC50 was determined as 0.045 nM. Moreover, the CC50 at 4 days in data set [2] is > 100 nM.
As to `Cn1nc(NS(C)(=O)=O)c2c(Cl)ccc(-n3c([C@H](Cc4cc(F)cc(F)c4)NC(=O)Cn4ccc(C5CC5)n4)nc4cc(-c5ccn(CC(F)(F)C(F)F)n5)ccc4c3=O)c21` (atropisomer, axis not shown; (P)) [Example 63, (S)—N-(1-((3P)-3-(4-chloro-1-methyl-3-(methylsulfonamido)-1H-indazol-7-yl)-4-oxo-7-(1-(2,2,3,3-tetrafluoropropyl)-1H-pyrazol-3-yl)-3,4-dihydroquinazolin-2-yl)-2-(3,5-difluorophenyl)ethyl)-2-(3-cyclopropyl-1H-pyrazol-1-yl)acetamide], the EC50 in data set [1] is 0.043 nM. For the same compound, the cytotoxic concentration (CC50) at 4 days in data set [2] is > 100 nM.
Regarding `Cn1nc(NS(C)(=O)=O)c2c(Cl)ccc(-n3c([C@H](Cc4cc(F)cc(F)c4)NC(=O)Cn4nc(C(F)F)c5c4C(F)(F)[C@@H]4C[C@H]54)nc4cc(-c5cnn(CCF)c5)ccc4c3=O)c21` (atropisomer, axis not shown; (P)) [Example 42, N—((S)-1-((3P)-3-(4-chloro-1-methyl-3-(methylsulfonamido)-1H-indazol-7-yl)-7-(1-(2-fluoroethyl)-1H-pyrazol-4-yl)-4-oxo-3,4-dihydroquinazolin-2-yl)-2-(3,5-difluorophenyl)ethyl)-2-((3bS,4aR)-3-(difluoromethyl)-5,5-difluoro-3b,4,4a,5-tetrahydro-1H-cyclopropa[3,4]cyclopenta[1,2-c]pyrazol-1-yl)acetamide], the concentration for a half-maximal effect (EC50) in data set [1] was determined as 0.068 nM. Further, the CC50 at 4 days in data set [2] is > 100 nM.
Regarding `CS(=O)(=O)Nc1nn(CCCF)c2c(-n3c([C@H](Cc4cc(F)cc(F)c4)NC(=O)Cn4nc(C(F)F)c5c4C(F)(F)[C@@H]4C[C@H]54)nc4cc(-c5ccnn5CC(F)(F)C(F)F)ccc4c3=O)ccc(Cl)c12` [Example 62, N—((S)-1-((3P)-3-(4-chloro-1-(3-fluoropropyl)-3-(methylsulfonamido)-1H-indazol-7-yl)-4-oxo-7-(1-(2,2,3,3-tetrafluoropropyl)-1H-pyrazol-5-yl)-3,4-dihydroquinazolin-2-yl)-2-(3,5-difluorophenyl)ethyl)-2-((3bS,4aR)-3-(difluoromethyl)-5,5-difluoro-3b,4,4a,5-tetrahydro-1H-cyclopropa[3,4]cyclopenta[1,2-c]pyrazol-1-yl)acetamide], in data set [1], the EC50 was 0.074 nM. Further, the CC50 at 4 days in data set [2] is > 100 nM.
For `Cn1nc(NS(C)(=O)=O)c2c(Cl)ccc(-n3c([C@H](Cc4cc(F)cc(F)c4)NC(=O)Cn4nc(C(F)F)c5c4C(F)(F)[C@@H]4C[C@H]54)nc4cc(-c5cncc(C(F)F)c5)ccc4c3=O)c21` (atropisomer, axis not shown; (P)) [Example 17, N—((S)-1-((3P)-3-(4-chloro-1-methyl-3-(methylsulfonamido)-1H-indazol-7-yl)-7-(5-(difluoromethyl)pyridin-3-yl)-4-oxo-3,4-dihydroquinazolin-2-yl)-2-(3,5-difluorophenyl)ethyl)-2-((3bS,4aR)-3-(difluoromethyl)-5,5-difluoro-3b,4,4a,5-tetrahydro-1H-cyclopropa[3,4]cyclopenta[1,2-c]pyrazol-1-yl)acetamide], in data set [1], the EC50 worked out at 0.078 nM. Moreover, the CC50 at 4 days in data set [2] is > 500 nM.

The term EC50 denotes the concentration that produces a half-maximal response. For orientation: CC50 means the concentration giving 50% cytotoxicity.
